Data published in PubChem BioAssay AID248 (DTP/NCI, 2004).
“And” between values parts separate entries of the source, which are not always exact repeats. Equal entries are not always repeated. Inconclusive results and toxic doses are left out. Cut-off read from the data, not from the text of the source: active = T/C of 150% or more; inactive = T/C below 125%.

Test system: L1210 leukemia ip in BDF1 mice, survival T/C
Assay: NCI In Vivo Anticancer Drug Screen. Data for tumor model L1210 Leukemia (intraperitoneal) in B6D2F1 (BDF1) mice
Details: endpoint: mean survival time, higher = longer survival
Procedure, shortened: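 Each compound was tested against a transplantable tumor grown in mice. The endpoint was survival, with treated animals benchmarked against vehicle controls as a simple ratio.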

[1] = dose: 100.0 mg/kg/injection, schedule: Q01DX001 (ip), vehicle: saline
[2] = dose: 100.0 mg/kg/injection, schedule: Q04DX003 (ip), vehicle: saline
[3] = dose: 200.0 mg/kg/injection, schedule: Q01DX001 (ip), vehicle: saline
[4] = dose: 200.0 mg/kg/injection, schedule: Q04DX003 (ip), vehicle: saline
[5] = dose: 400.0 mg/kg/injection, schedule: Q01DX001 (ip), vehicle: saline
[6] = dose: 100.0 mg/kg/injection, schedule: Q04DX003 (ip), vehicle: saline with Tween-80
[7] = dose: 200.0 mg/kg/injection, schedule: Q04DX003 (ip), vehicle: saline with Tween-80
[8] = dose: 400.0 mg/kg/injection, schedule: Q04DX003 (ip), vehicle: saline with Tween-80
[9] = dose: 100.0 mg/kg/injection, schedule: Q04DX002 (ip), vehicle: Klucel (hydroxypropylcellulose) (HPC)
[10] = dose: 200.0 mg/kg/injection, schedule: Q04DX002 (ip), vehicle: Klucel (hydroxypropylcellulose) (HPC)
[11] = dose: 400.0 mg/kg/injection, schedule: Q04DX002 (ip), vehicle: Klucel (hydroxypropylcellulose) (HPC)
[12] = dose: 5.0 mg/kg/injection, schedule: Q01DX001 (ip), vehicle: saline
[13] = dose: 10.0 mg/kg/injection, schedule: Q01DX001 (ip), vehicle: saline
[14] = dose: 20.0 mg/kg/injection, schedule: Q01DX001 (ip), vehicle: saline
[15] = dose: 40.0 mg/kg/injection, schedule: Q01DX001 (ip), vehicle: saline

Measured: T/C

CCC(C)C1NC(=O)C(NC(=O)c2c3nc4c(C(=O)NC5C(=O)NC(C(C)CC)C(=O)N6CCCC6C(=O)N(C)CC(=O)N(C)C(C(C)C)C(=O)OC5C)cc([N+](=O)[O-])c(C)c4oc-3c(C)c(=O)c2N)C(C)OC(=O)C(C(C)C)N(C)C(=O)CN(C)C(=O)C2CCCN2C1=O (stereo unspecified)
inactive: dose: 75.0 micrograms/kg/injection, schedule: Q01DX009 (ip), vehicle: saline + alcohol 111 % of control | dose: 100.0 micrograms/kg/injection, schedule: Q01DX009 (ip), vehicle: saline + alcohol 112 % of control | dose: 200.0 micrograms/kg/injection, schedule: Q01DX009 (ip), vehicle: saline + alcohol 122 % of control | dose: 300.0 micrograms/kg/injection, schedule: Q04DX003 (ip), vehicle: saline + alcohol 107 % of control | dose: 400.0 micrograms/kg/injection, schedule: Q04DX003 (ip), vehicle: saline + alcohol 108 % of control | dose: 600.0 micrograms/kg/injection, schedule: Q04DX003 (ip), vehicle: saline + alcohol 119 % of control

CCCCCCCCCCCCNc1ccc(S(=O)(=O)c2ccc(N)cc2)cc1
inactive: dose: 100.0 mg/kg/injection, schedule: Q04DX002 (ip), vehicle: saline with Tween-80 100 % of control | dose: 200.0 mg/kg/injection, schedule: Q04DX002 (ip), vehicle: saline with Tween-80 97 % of control | dose: 400.0 mg/kg/injection, schedule: Q04DX002 (ip), vehicle: saline with Tween-80 103 % of control

O=S(=O)(CC12CC1(O)C1CCC2C1)c1ccccc1 (stereo unspecified)
inactive: dose: 25.0 mg/kg/injection, schedule: Q01DX009 (ip), vehicle: saline 104 % of control | dose: 50.0 mg/kg/injection, schedule: Q01DX009 (ip), vehicle: saline 104 % of control | [1] 108 % of control | dose: 100.0 mg/kg/injection, schedule: Q01DX009 (ip), vehicle: saline 93 % of control | [2] 103 % of control | [3] 103 % of control | [4] 100 % of control | [5] 107 % of control

Nc1cc(Cl)ccc1Cl
inactive: dose: 100.0 mg/kg/injection, schedule: Q04DX002 (ip), vehicle: gum acacia 91 % of control | dose: 200.0 mg/kg/injection, schedule: Q04DX002 (ip), vehicle: gum acacia 95 % of control | dose: 400.0 mg/kg/injection, schedule: Q04DX002 (ip), vehicle: gum acacia 95 % of control

CCOC(=O)C(NC(N)=O)C(=O)OCC
inactive: dose: 100.0 mg/kg/injection, schedule: Q01DX009 (ip), vehicle: Klucel (hydroxypropylcellulose) (HPC) 95 % of control | dose: 100.0 mg/kg/injection, schedule: Q04DX003 (ip), vehicle: Klucel (hydroxypropylcellulose) (HPC) 95 % of control | dose: 200.0 mg/kg/injection, schedule: Q01DX009 (ip), vehicle: Klucel (hydroxypropylcellulose) (HPC) 101 % of control | dose: 200.0 mg/kg/injection, schedule: Q04DX003 (ip), vehicle: Klucel (hydroxypropylcellulose) (HPC) 97 % of control | dose: 400.0 mg/kg/injection, schedule: Q01DX009 (ip), vehicle: Klucel (hydroxypropylcellulose) (HPC) 101 % of control | dose: 400.0 mg/kg/injection, schedule: Q04DX003 (ip), vehicle: Klucel (hydroxypropylcellulose) (HPC) 104 % of control

CCC1=C(c2ccc(OC)cc2)CCC(C(=O)O)C1C (stereo unspecified)
inactive: dose: 6.0 mg/kg/injection, schedule: Q01DX Z (ip), vehicle: saline 100 % of control | dose: 12.0 mg/kg/injection, schedule: Q01DX Z (ip), vehicle: saline 96 % of control | dose: 25.0 mg/kg/injection, schedule: Q01DX Z (ip), vehicle: saline 102 % of control | dose: 50.0 mg/kg/injection, schedule: Q01DX Z (ip), vehicle: saline 100 % of control | dose: 100.0 mg/kg/injection, schedule: Q01DX Z (ip), vehicle: saline 102 % of control | dose: 200.0 mg/kg/injection, schedule: Q01DX Z (ip), vehicle: saline 100 % of control | dose: 400.0 mg/kg/injection, schedule: Q01DX Z (ip), vehicle: saline 110 % of control | dose: 800.0 mg/kg/injection, schedule: Q01DX Z (ip), vehicle: saline 98 % of control and 120 % of control

CCOC1OCN(C(C)C)CC1(C)C (stereo unspecified)
inactive: dose: 75.0 mg/kg/injection, schedule: Q01DX009 (ip), vehicle: saline 110 % of control | dose: 150.0 mg/kg/injection, schedule: Q01DX009 (ip), vehicle: saline 119 % of control

c1ccc2c(c1)ccc1ccccc12
inactive: [6] 100 % of control | [7] 92 % of control | [8] 92 % of control

CC(=O)C1(C(C)=O)C(c2cccc([N+](=O)[O-])c2)C1(c1ccccc1)[N+](=O)[O-] (stereo unspecified)
inactive: dose: 100.0 mg/kg/injection, schedule: Q01DX001 (ip), vehicle: other 95 % of control | dose: 100.0 mg/kg/injection, schedule: Q01DX009 (ip), vehicle: saline with Tween-80 94 % of control | dose: 100.0 mg/kg/injection, schedule: Q04DX003 (ip), vehicle: other 92 % of control | dose: 200.0 mg/kg/injection, schedule: Q01DX001 (ip), vehicle: other 93 % of control | dose: 200.0 mg/kg/injection, schedule: Q01DX009 (ip), vehicle: saline with Tween-80 102 % of control | dose: 200.0 mg/kg/injection, schedule: Q04DX003 (ip), vehicle: other 92 % of control | dose: 400.0 mg/kg/injection, schedule: Q01DX001 (ip), vehicle: other 95 % of control | dose: 400.0 mg/kg/injection, schedule: Q01DX009 (ip), vehicle: saline with Tween-80 96 % of control | dose: 400.0 mg/kg/injection, schedule: Q04DX003 (ip), vehicle: other 97 % of control

C1CCC(N2CN(C3CCCCC3)CN(C3CCCCC3)C2)CC1
inactive: [9] 97 % of control | [10] 106 % of control | [11] 115 % of control

COc1c(-c2cc(C)nc(NC#N)n2)c(O)cc2occc12
inactive: [9] 95 % of control | [10] 95 % of control | [11] 98 % of control

C=CC1OC2OC(C)(C)OC2C1O (stereo unspecified)
inactive: [12] 91 % of control | [13] 98 % of control | dose: 18.7 mg/kg/injection, schedule: Q01DX001 (ip), vehicle: steriod suspending solution 108 % of control | [14] 93 % of control | dose: 37.5 mg/kg/injection, schedule: Q01DX001 (ip), vehicle: steriod suspending solution 103 % of control | [15] 96 % of control | dose: 75.0 mg/kg/injection, schedule: Q01DX001 (ip), vehicle: steriod suspending solution 109 % of control | dose: 150.0 mg/kg/injection, schedule: Q01DX001 (ip), vehicle: steriod suspending solution 98 % of control | dose: 200.0 mg/kg/injection, schedule: Q01DX001 (ip), vehicle: steriod suspending solution 104 % of control | dose: 400.0 mg/kg/injection, schedule: Q01DX001 (ip), vehicle: steriod suspending solution 103 % of control

COCCCn1nnc2ccccc2c1=O
inactive: [2] 98 % of control | [4] 93 % of control | dose: 400.0 mg/kg/injection, schedule: Q04DX003 (ip), vehicle: saline 100 % of control

CC1(CCCOc2ccc(N)cc2)N=C(N)N=C(N)N1c1ccccc1 (stereo unspecified)
inactive: [12] 96 % of control | [13] 96 % of control | [14] 92 % of control | [15] 92 % of control | dose: 80.0 mg/kg/injection, schedule: Q01DX001 (ip), vehicle: saline 90 % of control

CC1=NNC(=O)C1(Cl)c1ccc(N)cc1 (stereo unspecified)
inactive: [1] 102 % of control | [3] 100 % of control | [5] 100 % of control

CSc1nc(C)c(Br)c(Sc2nc(N)nc3nc[nH]c23)n1
inactive: dose: 100.0 mg/kg/injection, schedule: Q01DX Z (ip), vehicle: methylcellulose (MC) 87 % of control

CC(C)CC(O)CC(C)C
inactive: [6] 95 % of control | dose: 118.0 mg/kg/injection, schedule: Q01DX009 (ip), vehicle: saline with Tween-80 108 % of control | [7] 93 % of control | dose: 250.0 mg/kg/injection, schedule: Q01DX009 (ip), vehicle: saline with Tween-80 102 % of control | [8] 90 % of control
